This passage reports IC50 results from patent US6503926B2, “Chemokine receptor antagonists and methods of use therefor” (Millennium Pharmaceuticals, Inc., priority 1998, dated 2003).

The target in the test is T1, THP-1 cell membranes (RANTES / MIP-1α binding; chemokine receptor, believed CCR1) (Homo sapiens, UniProt P32246).
T1 sequence (P32246 1-355): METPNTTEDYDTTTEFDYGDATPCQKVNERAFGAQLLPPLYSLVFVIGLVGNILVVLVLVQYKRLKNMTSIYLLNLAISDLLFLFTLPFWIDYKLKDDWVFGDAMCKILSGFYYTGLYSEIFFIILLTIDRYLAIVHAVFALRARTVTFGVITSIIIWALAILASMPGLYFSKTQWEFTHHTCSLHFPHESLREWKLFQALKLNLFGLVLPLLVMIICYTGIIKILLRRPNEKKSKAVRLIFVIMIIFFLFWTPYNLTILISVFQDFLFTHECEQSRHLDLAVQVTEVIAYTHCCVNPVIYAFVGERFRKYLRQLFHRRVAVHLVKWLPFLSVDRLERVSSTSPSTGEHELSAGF
The experiment in a line: Receptor binding assay, 125I-RANTES or 125I-MIP-1α binding to THP-1 cell membranes. As to conditions: 125I-RANTES or 125I-MIP-1α as ligand, 60 min at room temperature, read-out: IC50 (inhibitor concentration required for 50% inhibition of specific binding). As for the experimental part:
Membranes were prepared from THP-1 cells (ATCC #TIB202). Cells were harvested by centrifugation, washed twice with PBS (phosphate-buffered saline), and the cell pellets were frozen at -70 to -85° C. The frozen pellet was thawed in ice-cold lysis buffer consisting of 5 mM HEPES (N-2-hydroxyethylpiperazine-N'-2-ethane-sulfonic acid) pH 7.5, 2 mM EDTA (ethylenediaminetetraacetic acid), 5 μg/ml each aprotinin, leupeptin, and chymostatin (protease inhibitors), and 100 μg/ml PMSF (phenyl methane sulfonyl fluoride-also a protease inhibitor), at a concentration of 1 to 5×10^7 cells/ml. This procedure results in cell lysis. The suspension was mixed well to resuspend all of the frozen cell pellet. Nuclei and cell debris were removed by centrifugation of 400×g for 10 minutes at 4° C. The supernatant was transferred to a fresh tube and the membrane fragments were collected by centrifugation at 25,000×g for 30 minutes at 4° C. The supernatant was aspirated and the pellet was resuspended in freezing buffer consisting of 10 mM HEPES pH 7.5, 300 mM sucrose, 1 μg/ml each aprotinin, leupeptin, and chymostatin, and 10 μg/ml PMSF (approximately 0.1 ml per each 10^8 cells). All clumps were resolved using a minihomogenizer, and the total protein concentration was determined using a protein assay kit (Bio-Rad, Hercules, Calif., cat #500-0002). The membrane solution was then aliquoted and frozen at -70 to -85° C. until needed. Binding Assays-utilized the membranes described above. Membrane protein (2 to 20 μg total membrane protein) was incubated with 0.1 to 0.2 nM ^125I-labeled RANTES or MIP-1α with or without unlabeled competitor (RANTES or MIP-1α) or various concentrations of compounds. The binding reactions were performed in 60 to 100 μl of a binding buffer consisting of 10 mM HEPES pH 7.2, 1 mM CaCl2, 5 mM MgCl2, and 0.5% BSA (bovine serum albumin), for 60 min at room temperature. The binding reactions were terminated by harvesting the membranes by rapid filtration through glass fiber filters (GF/B or GF/C, Packard) which were presoaked in 0.3% polyethyleneimine. The filters were rinsed with approximately 600 μl of binding buffer containing 0.5 M NaCl, dried, and the amount of bound radioactivity was determined by scintillation counting in a Topcount beta-plate counter. […] Specific binding is defined as the total binding minus the non-specific binding; non-specific binding is the amount of cpm still detected in the presence of excess unlabeled Rantes or ^125MIP-1α.
For the compound `OC1(c2ccc(Cl)cc2)CCN(CCC=C(c2cccnc2)c2ccnc(Br)c2)CC1` [Example 4, 1-[4-(2-Bromo-4-pyridinyl)-4-(3-pyridinyl)-3-butenyl]-4-(4-chlorophenyl)piperidin-4-ol], the IC50 is over 1000 nM.

As to `COc1cccc(C(=CCCN2CCC(O)(c3ccc(Cl)cc3)CC2)c2cccnc2)c1` [Example 1, 4-(4-Chlorophenyl)-1-[4-(3-methoxyphenyl)-4-(3-pyridinyl)-3-butenyl]piperidin-4-ol], the IC50 was under 1000 nM.

For the compound `OC1(c2ccc(Cl)cc2)CCN(CCC=C(c2ccccc2)c2cccnc2)CC1` [Example 2, 4-(4-Chlorophenyl)-1-[4-phenyl-4-(3-pyridinyl)-3-butenyl]piperidin-4-ol], the IC50 is under 1000 nM. Next, `COc1ccc(OC)c(C(=CCCN2CCC(O)(c3ccc(Cl)cc3)CC2)c2cccnc2)c1` [Example 3, 4-(4-Chlorophenyl)-1-[4-(2,5-dimethoxyphenyl)-4-(3-pyridinyl)-3-butenyl]piperidin-4-ol]: under 1000 nM.
